Values after ≈ are worked out from the molar mass of the structure shown.

The subject of this experiment is rhinovirus, HRV-14. The experiment in a line: Anti-picornaviral plaque reduction assay. The conditions noted are these: Rhinovirus B, HRV14, Table 1, 50% inhibition of plaque formation, BSC-1 or Hela cells, 120 hours at 32° C., trans isomer. Format: cell-based. On the technique in general: In a plaque reduction assay, fewer plaques than in the control indicate reduced infectivity or spread.
As usually defined, the IC50 is the concentration that inhibits the measured activity by half. A low value points to higher potency. Compound `COC(=O)/C=C(/c1ccc2nc(N)n(S(=O)(=O)C(C)C)c2c1)c1cccc(F)c1F` [Example 12] showed an IC50 of 0.052 µg/mL (≈ 0.119 µM).

`CC(C)S(=O)(=O)n1c(N)nc2ccc(/C(=C/S(C)(=O)=O)c3cccc(F)c3F)cc21` [Example 8, Trans 1-Isopropylsulfonyl-2-Amino-6-(1-[2,3-Difluorophenyl]-2-Methylsulfonylethen-1-yl)benzimidazole] displayed an IC50 of 0.05 µg/mL (≈ 0.11 µM).

Compound `CC(C)S(=O)(=O)n1c(N)nc2ccc(/C(=N/O)c3ccccc3)cc21` [13 (parent), reference compound] gave an IC50 of 0.05 µg/mL (≈ 0.139 µM).

Turning to `COC(=O)/C=C(\c1ccccc1)c1ccc2nc(N)n(S(=O)(=O)C(C)C)c2c1` [12 (parent), reference compound], inhibition was half-maximal at 0.05 µg/mL (≈ 0.125 µM) (IC50).

Take `CC(C)S(=O)(=O)n1c(N)nc2ccc(/C(=C/[S+](C)[O-])c3ccccc3)cc21` (centres unmarked) [10 (parent), reference compound]: the IC50 was 3.52 µg/mL (≈ 8.72 µM).

In turn, `CS/C=C(/c1ccc2nc(N)n(S(=O)(=O)C(C)C)c2c1)c1cccc(F)c1F` [Example 9, 1-Isopropylsulfonyl-2-Amino-6-(1-[2,3-Difluorophenyl]-2-Methylsulfidoethen-1-yl)benzimidazole] displayed an IC50 of 0.072 µg/mL (≈ 0.17 µM).

For `CC(C)S(=O)(=O)n1c(N)nc2ccc(/C(=C/[S+](C)[O-])c3cccc(F)c3F)cc21` (centres unmarked) [Example 10], 0.394 µg/mL (≈ 0.896 µM) corresponded to half-maximal inhibition (IC50).

Compound `CC(=O)/C=C(\c1ccc(F)cc1)c1ccc2nc(N)n(S(=O)(=O)C(C)C)c2c1` [Example 14, 1-Isopropylsulfonyl-2-Amino-6-(1-[4-Fluorophenyl]-2-(1-Oxoeth-1-yl)ethen-1-yl)benzimidazole] registered a half-inhibitory concentration (IC50) of 0.21 µg/mL (≈ 0.523 µM).

As to `CC(=O)/C=C(/c1ccc2nc(N)n(S(=O)(=O)C(C)C)c2c1)c1cccc(F)c1F` [Example 11, Trans 1-Isopropylsulfonyl-2-Amino-6-(1-[2,3-Difluorophenyl]-2-(1-Oxoeth-1-yl)ethen-1-yl)benzimidazole], the IC50 is 0.048 µg/mL (≈ 0.114 µM).

`CS/C=C(\c1ccccc1)c1ccc2nc(N)n(S(=O)(=O)C(C)C)c2c1` [9 (parent), reference compound] showed an IC50 of 2.58 µg/mL (≈ 6.66 µM).

Consider `CC(C)S(=O)(=O)n1c(N)nc2ccc(/C(=N/O)c3cccc(F)c3F)cc21` [Example 13, Trans 1-Isopropylsulfonyl-2-Amino-6-(1-[2,3-Difluorophenyl]oximyl)benzimidazole], for which it took 0.051 µg/mL (≈ 0.129 µM) to reach half-maximal inhibition (IC50).

Source of the values: US6114327A, “Anti-viral compounds” (Eli Lilly and Company, priority 1999, dated 2000).
